{"source": "patent US8420631B2", "about": "“6-substituted-2,3,4,5-tetrahydro-1H-benzo[d]azepines as 5-HT2C receptor agonists” (Eli Lilly and Company, priority 2005, dated 2013)", "key": {"Wistar rats [1]": {"tested_on": "Wistar rats", "details": "general statement on standards; cited from earlier work"}, "male NIH Swiss mice [2]": {"tested_on": "male NIH Swiss mice", "assay": "Marble burying assay", "assay_type": "in vivo, mouse", "details": "with rotorod performance", "excerpt": "Marble burying in mice has been used to model anxiety disorders including obsessive-compulsive disorders (OCD) due to ethological study of the behavior (e.g. Gyertyan I. “Analysis of the marble burying response: Marbles serve to measure digging rather than evoke burying”, Behavioural Pharmacology 6: 24-31, (1995)) and due to the pharmacological effects of clinical standards (c.f., Njung'E K. Handley S L. “Evaluation of marble-burying behavior as a model of anxiety”, Pharmacology, Biochemistry & Behavior. 38: 63-67, (1991)); Borsini F., Podhorna J., and Marazziti, D. “Do animal models of anxiety predict anxiolytic effects of antidepressants?”, Psychopharmacology 163: 121-141, (2002)).\nHouse experimentally-naïve male, NIH Swiss mice (Harlan Sprague-Dawley, Indianapolis, Ind.) weighing between 28-35 g in groups of 12 for at least three days prior to testing in a vivarium with 12 h light and dark cycles. Conduct experiments during the light cycle in a dimly lit experimental testing room. Dose mice with vehicle or test compound and, after a specified pretreatment interval (generally 30 min.), place each mouse individually on a rotorod (Ugo Basile 7650) operating at a speed of 6 revolutions/min. and observe for falling. […]\nClinically effective standard compounds suppress marble burying at doses that are devoid of motor-impairing effects as measured on the rotorod. […]"}, "Wistar rats [3]": {"tested_on": "Wistar rats", "assay": "Schedule-induced polydipsia", "details": "rat, in vivo", "excerpt": "Food-deprived rats exposed to intermittent presentations of food will drink amounts of water that are far in excess of their normal daily intake and in excess of their intake when given all of their food at one time (Falk J L. “Production of polydipsia in normal rats by an intermittent food schedule”, Science 133: 195-196, (1961)). This excessive behavior is persistent and has been used to model OCD.\nMaintain Wistar rats on a food restricted diet (to maintain 85% free feeding weight), but with free access to water. Train the rats in a behavioral testing chamber to press a lever to receive a food pellet under a fixed interval schedule, such that the rats are rewarded with a 45 mg food pellet the first time they press a lever after a 120 second interval has elapsed. The fixed interval is then reset to 120 seconds and the process repeated. Thus, during a 90 min. test session, the rats can earn a maximum of 45 pellets. The behavioral chamber is also equipped with a water bottle that is weighed before and after the session to determine the amount of water consumed.\nAdminister test compounds on Tuesdays and Fridays. […] Compare the rates of lever pressing and water consumption for each animal's performance during sessions after test compound treatment with that animal's performance during control sessions, expressed as a percent of the control rate. […]"}, "male NIH Swiss mice [4]": {"tested_on": "male NIH Swiss mice", "assay": "Nestlet shredding", "assay_type": "in vivo, mouse", "details": "with rotorod / motor effects", "excerpt": "Mice naturally will construct nests of material available in their living environment. Since this behavior is obsessive in nature, it has been used to model OCD (Xia Li, Denise Morrow and Jeffrey M. Witkin, “Decreases in nestlet shredding of mice by serotonin uptake inhibitors: comparison with marble burying”, Psychopharmacology, submitted Jul. 14, 2003). House experimentally-naïve male, NIH Swiss mice (Harlan Sprague-Dawley, Indianapolis, Ind.) weighing between 28-35 g in groups of 12 for at least three days prior to testing in a vivarium with a 12 h light/dark cycle. Conduct experiments during the light cycle in an experimental room with normal overhead fluorescent lighting. Dose mice with vehicle or test compound and after a specified pretreatment interval (generally 30 min.), place the mice individually in a 17×28×12 cm high plastic tub with about 5 mm sawdust shavings on the floor along with a pre-weighed multi-ply gauze pad (51 mm square). After 30 min., weigh the remainder of the gauze pad not removed by the mouse. Determine the weight of the gauze used for nestlet construction by subtraction. Compare the results for test compound treated mice to the results for vehicle control treated mice with Dunnett's test.\nClinically effective OCD treatment standard compounds suppress nestlet shredding at doses that are devoid of motor-impairing effects as measured by the rotorod test. […]"}, "male NIH Swiss mice [5]": {"tested_on": "male NIH Swiss mice", "details": "background statement; cited from earlier work"}}}
{"smiles": "CN(C)CCCN1c2ccccc2CCc2ccc(Cl)cc21", "note": "[chlomipramine]", "values": [{"measurement": "schedule-induced polydipsia, clinically effective OCD standard compounds", "setting": "Wistar rats [1]", "result": "suppress schedule-induced polydipsia without producing notable changes in motor patterns, food intake, or behavior the following day"}]}
{"smiles": "CN(C)CCCN1c2ccccc2Sc2ccc(Cl)cc21", "note": "[chlorpromazine]", "values": [{"measurement": "marble burying behavior", "setting": "male NIH Swiss mice [2]", "result": "decrease marble burying only at doses that also disrupt rotorod performance"}]}
{"smiles": "C[C@H](N)Cc1ccccc1", "note": "[d-amphetamine]", "values": [{"measurement": "schedule-induced polydipsia (excessive drinking)", "setting": "Wistar rats [3]", "result": "decreases excessive drinking only at behaviorally stimulating doses"}, {"measurement": "suppression of excessive drinking with co-administration of the 5-HT2C antagonist", "setting": "Wistar rats [3]", "result": "not prevented"}, {"measurement": "nestlet shredding", "setting": "male NIH Swiss mice [4]", "result": "decreases nestlet shredding only at doses that produce motoric side effects"}]}
{"smiles": "CNCCC(Oc1ccc(C(F)(F)F)cc1)c1ccccc1", "note": "(stereo not shown) [fluoxetine]", "values": [{"measurement": "schedule-induced polydipsia, clinically effective OCD standard compounds", "setting": "Wistar rats [1]", "result": "suppress schedule-induced polydipsia without producing notable changes in motor patterns, food intake, or behavior the following day"}, {"measurement": "marble burying (literature)", "setting": "male NIH Swiss mice [5]", "result": "decrease burying"}]}
